Test results as given in ChEMBL document CHEMBL5465560, “Selectivity Literature for EUbOPEN Chemogenomic Library” (2024).

Columns and labels:
[1] = target: Dual specificity protein kinase CLK3 (Homo sapiens, UniProt P49761); settings: at 1 µM
[2] = target: Mitogen-activated protein kinase kinase kinase 10 (Homo sapiens) (UniProt Q02779); assay: Selectivity interaction (Kinase panel (KiNativ target engagement assay in Jurkat cells)) EUB0001635a MAP3K10; type: cell-based; settings: Selectivity number of off-targets 0.0, Selectivity number of targets 233.0, Source Knowledge https://www.sciencedirect.com/science/article/pii/S2451945619300674?via%3Dihub, at 1 µM
[3] = target: T1, Discoidin domain-containing receptor 2 (Homo sapiens) (UniProt Q16832); settings: at 10 µM
T1 sequence (whole entry): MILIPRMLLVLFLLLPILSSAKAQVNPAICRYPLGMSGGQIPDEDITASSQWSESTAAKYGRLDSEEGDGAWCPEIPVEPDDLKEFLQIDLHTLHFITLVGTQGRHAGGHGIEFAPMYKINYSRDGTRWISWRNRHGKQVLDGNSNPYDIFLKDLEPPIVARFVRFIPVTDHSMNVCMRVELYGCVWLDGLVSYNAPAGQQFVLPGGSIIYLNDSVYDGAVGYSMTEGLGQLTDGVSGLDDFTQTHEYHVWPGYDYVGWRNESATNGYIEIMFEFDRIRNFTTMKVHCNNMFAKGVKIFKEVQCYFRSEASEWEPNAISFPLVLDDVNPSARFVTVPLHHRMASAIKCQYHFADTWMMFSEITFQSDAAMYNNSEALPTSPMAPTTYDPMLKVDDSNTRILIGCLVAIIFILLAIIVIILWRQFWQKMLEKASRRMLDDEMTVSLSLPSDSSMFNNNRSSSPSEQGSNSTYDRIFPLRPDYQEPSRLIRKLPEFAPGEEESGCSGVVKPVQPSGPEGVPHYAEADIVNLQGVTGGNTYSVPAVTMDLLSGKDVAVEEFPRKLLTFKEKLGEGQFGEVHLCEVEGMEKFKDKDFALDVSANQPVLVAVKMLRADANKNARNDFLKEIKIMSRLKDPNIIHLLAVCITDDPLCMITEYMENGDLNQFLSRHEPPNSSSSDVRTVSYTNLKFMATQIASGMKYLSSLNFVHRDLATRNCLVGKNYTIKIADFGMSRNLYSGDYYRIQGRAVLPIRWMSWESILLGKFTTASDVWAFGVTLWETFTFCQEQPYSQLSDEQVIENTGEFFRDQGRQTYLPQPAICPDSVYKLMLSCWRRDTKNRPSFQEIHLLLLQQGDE

[4] = target: T2, Activin receptor type-1B (Homo sapiens) (UniProt P36896); assay: Selectivity interaction (KinomeScan (DiscoverX)) EUB0000607a ACVR1B; settings: at 10 µM
T2 sequence (whole entry): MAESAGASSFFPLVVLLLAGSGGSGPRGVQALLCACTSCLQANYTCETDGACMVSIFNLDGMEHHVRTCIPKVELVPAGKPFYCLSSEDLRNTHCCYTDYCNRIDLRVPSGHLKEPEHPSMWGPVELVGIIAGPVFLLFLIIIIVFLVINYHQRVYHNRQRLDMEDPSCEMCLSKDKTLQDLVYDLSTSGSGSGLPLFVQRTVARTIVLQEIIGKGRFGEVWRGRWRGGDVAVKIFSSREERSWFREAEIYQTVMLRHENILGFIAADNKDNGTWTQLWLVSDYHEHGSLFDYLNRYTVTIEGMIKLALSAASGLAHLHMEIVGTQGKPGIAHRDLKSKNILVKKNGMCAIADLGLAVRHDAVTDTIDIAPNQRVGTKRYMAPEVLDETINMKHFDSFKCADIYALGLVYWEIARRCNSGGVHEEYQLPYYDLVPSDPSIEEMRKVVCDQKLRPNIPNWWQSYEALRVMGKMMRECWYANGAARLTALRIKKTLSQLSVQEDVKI

[5] = target: Melanocortin receptor 4 (Homo sapiens) (UniProt P32245); assay: Selectivity interaction (Eurofins CEREP Diversity Profile (receptors and ion channels)) EUB0000279b MC4R; settings: at 10 µM
[6] = target: T3, Phosphatidylinositol 5-phosphate 4-kinase type-2 beta (Homo sapiens) (UniProt P78356); assay: Selectivity interaction (Ambit KINOMEscan and KiNATiv profiling in Jurkat cells) EUB0000090b PIP4K2B; type: cell-based; settings: at 1 µM
T3 sequence (whole entry): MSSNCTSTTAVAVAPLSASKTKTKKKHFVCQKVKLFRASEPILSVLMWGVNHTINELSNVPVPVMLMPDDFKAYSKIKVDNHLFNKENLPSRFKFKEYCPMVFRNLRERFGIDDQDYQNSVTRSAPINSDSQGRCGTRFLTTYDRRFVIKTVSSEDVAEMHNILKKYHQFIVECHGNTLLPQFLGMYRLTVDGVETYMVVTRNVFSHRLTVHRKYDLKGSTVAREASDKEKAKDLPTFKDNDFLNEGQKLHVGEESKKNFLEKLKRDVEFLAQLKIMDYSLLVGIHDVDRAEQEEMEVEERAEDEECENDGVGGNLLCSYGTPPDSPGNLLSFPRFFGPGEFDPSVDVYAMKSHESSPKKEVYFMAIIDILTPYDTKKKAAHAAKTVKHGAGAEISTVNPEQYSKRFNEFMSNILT

[7] = target: T4, Serine/threonine-protein kinase tousled-like 1 (Homo sapiens) (UniProt Q9UKI8); assay: Selectivity interaction (ActivX KiNativ screen (ex vivo kinase selectivity in human PBMCs)) EUB0001619a TLK1; type: cell-based; settings: PBMC, at 1 µM
T4 sequence (whole entry): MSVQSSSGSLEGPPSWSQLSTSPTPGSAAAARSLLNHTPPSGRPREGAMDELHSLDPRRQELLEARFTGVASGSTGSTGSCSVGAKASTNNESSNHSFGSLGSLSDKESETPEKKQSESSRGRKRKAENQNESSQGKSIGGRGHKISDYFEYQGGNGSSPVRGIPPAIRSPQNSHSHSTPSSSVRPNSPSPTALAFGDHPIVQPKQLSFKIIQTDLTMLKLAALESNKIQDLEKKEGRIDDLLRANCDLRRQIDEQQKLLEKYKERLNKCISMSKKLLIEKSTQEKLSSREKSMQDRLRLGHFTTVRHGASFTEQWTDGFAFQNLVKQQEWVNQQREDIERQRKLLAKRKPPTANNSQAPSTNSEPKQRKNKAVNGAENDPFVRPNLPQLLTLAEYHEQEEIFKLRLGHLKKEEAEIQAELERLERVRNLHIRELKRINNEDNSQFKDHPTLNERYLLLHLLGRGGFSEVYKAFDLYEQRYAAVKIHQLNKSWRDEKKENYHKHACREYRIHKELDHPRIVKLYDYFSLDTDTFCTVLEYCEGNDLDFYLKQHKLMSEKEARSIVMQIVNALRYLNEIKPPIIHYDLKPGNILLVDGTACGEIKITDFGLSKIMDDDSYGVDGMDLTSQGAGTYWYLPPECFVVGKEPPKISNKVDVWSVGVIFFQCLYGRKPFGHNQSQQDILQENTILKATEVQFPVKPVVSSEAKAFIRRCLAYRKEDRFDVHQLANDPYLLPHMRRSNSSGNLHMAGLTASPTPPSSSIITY

Sequence of Melanocortin receptor 4 (Homo sapiens) (P32245 whole entry): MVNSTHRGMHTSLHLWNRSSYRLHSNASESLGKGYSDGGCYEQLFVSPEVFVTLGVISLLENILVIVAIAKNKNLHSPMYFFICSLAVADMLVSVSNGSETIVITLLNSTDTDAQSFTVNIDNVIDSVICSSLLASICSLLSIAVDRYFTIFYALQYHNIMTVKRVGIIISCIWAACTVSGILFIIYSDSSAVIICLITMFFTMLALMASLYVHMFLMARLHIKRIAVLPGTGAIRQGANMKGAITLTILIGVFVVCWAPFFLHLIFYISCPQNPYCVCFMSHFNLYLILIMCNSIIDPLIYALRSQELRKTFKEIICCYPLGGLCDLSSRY
Sequence of Dual specificity protein kinase CLK3 (P49761 whole entry, looked up): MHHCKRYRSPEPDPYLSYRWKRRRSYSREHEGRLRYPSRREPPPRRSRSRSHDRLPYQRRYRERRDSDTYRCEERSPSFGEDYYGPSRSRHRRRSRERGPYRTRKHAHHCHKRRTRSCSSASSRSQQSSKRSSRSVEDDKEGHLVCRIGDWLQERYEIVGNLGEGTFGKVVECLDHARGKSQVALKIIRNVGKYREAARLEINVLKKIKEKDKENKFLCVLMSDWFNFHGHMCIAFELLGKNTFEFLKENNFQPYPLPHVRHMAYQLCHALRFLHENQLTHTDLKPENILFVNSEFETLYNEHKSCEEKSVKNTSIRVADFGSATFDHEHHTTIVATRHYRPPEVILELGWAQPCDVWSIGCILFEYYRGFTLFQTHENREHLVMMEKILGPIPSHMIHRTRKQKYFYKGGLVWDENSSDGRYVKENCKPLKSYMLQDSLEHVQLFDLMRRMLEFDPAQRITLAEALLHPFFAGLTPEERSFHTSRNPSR
Sequence of Mitogen-activated protein kinase kinase kinase 10 (Homo sapiens) (Q02779 whole entry, looked up, the tested form may be a part): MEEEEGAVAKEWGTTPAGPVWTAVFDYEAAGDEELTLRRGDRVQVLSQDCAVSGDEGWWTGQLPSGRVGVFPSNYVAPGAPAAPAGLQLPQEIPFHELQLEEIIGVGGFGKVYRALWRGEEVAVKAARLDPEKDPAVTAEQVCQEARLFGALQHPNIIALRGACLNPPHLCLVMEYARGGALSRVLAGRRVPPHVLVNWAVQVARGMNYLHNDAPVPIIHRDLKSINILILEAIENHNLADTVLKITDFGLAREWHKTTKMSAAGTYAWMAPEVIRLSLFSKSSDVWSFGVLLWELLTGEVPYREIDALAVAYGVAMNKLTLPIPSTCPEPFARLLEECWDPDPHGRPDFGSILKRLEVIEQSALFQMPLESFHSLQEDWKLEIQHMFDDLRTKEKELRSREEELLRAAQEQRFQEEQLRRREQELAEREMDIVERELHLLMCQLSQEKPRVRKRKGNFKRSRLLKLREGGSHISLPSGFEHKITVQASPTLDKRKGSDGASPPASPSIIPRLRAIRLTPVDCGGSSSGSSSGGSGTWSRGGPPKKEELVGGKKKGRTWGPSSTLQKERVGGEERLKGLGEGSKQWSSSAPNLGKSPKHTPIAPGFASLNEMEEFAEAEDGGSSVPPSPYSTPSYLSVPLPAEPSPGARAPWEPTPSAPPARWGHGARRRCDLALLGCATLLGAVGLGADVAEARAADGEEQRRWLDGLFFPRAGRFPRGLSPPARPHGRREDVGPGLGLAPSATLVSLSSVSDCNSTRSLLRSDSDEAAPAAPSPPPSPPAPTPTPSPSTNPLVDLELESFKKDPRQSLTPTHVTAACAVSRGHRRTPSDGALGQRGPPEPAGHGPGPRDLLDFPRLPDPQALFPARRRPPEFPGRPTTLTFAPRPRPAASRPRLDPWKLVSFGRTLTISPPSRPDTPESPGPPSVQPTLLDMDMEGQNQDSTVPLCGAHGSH

## Cc1ccc(-c2ccc3c(ccc4sc5c(c43)NC[C@@H](C)NC5=O)n2)cn1
[1]
  % of inhibition: 24%

## C=CC(=O)Nc1ccc(C(=O)Nc2[nH]nc3c2CN(C(=O)N[C@H](CN(C)C)c2ccccc2)C3(C)C)cc1
[2]
  % of engagement: -31.2%

## Cc1cc([C@@H](C)Nc2ccccc2C(=O)O)c2nc(N3CCOCC3)cc(=O)n2c1 [AZD-6482]
[3]
  % of control: 83%

## CNC(=O)Nc1ccc(-c2nc(N3CC4CCC(C3)O4)c3cnn(C4CCC5(CC4)OCCO5)c3n2)cc1
[4]
  % of control: 100%

## CC(=O)c1cc(-c2ccccc2OCC2CC2)c2ncccn12
[5]
  % of control: 90%

## CN(C)C/C=C/C(=O)Nc1ccc(C(=O)N2CCCC(Nc3ncc(Cl)c(-c4c[nH]c5ccccc45)n3)C2)cc1 (configuration not stated)
[6]
  % of control: 83%

## N#Cc1cccc(-c2c[nH]c3ncnc(N4CCOCC4)c23)c1
[7]
  % of inhibition: -4%
